Experimental data from patent publication US20060069132A1, “Azolecarboxamide herbicides” (priority 2004, published 2006).

Experiments:
wheat = experiment: Test B postemergence herbicide test; format: in vivo, Triticum aestivum; set-up: key to Wheat plant response rating: 0 = no effect, 100 = complete control; details: postemergence
Method in brief: (§1)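 After treating 2-leaf paddy plants or 2–18 cm postemergence plants (1 to 4 leaves) with formulated chemical, researchers kept them in a greenhouse for 13–15 days. Effects were judged visually versus controls: 0 indicates none, 100 total control.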

redroot pigweed = experiment: Test A pre-/postemergence herbicide test; format: in vivo, Amaranthus retroflexus
Method in brief: (§2)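 Visual injury scores on a 0–100 scale (100 = complete control) taken about ten days post-treatment in greenhouse against untreated controls; dash means no result. Treatments: preemergence soil spray and postemergence spray to runoff on one- to two-leaf plants 2 to 10 cm tall, surfactant-containing formulation.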

large crabgrass [1] = experiment: Test A pre-/postemergence herbicide test; format: in vivo, Digitaria sanguinalis
Method in brief: as §2

velvetleaf [2] = experiment: Test B pre-/postemergence herbicide test; format: in vivo, Abutilon theophrasti; details: for Velvetleaf plant response rating: postemergence
Method in brief: (§3)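 Response was scored visually 13 to 15 days after treatment against untreated greenhouse controls, 0 meaning no effect and 100 complete control. Formulations (solvent mixture plus surfactant) went onto soil after planting, onto foliage of 1- to 4-leaf plants, and onto 2-leaf plants in a flooded paddy set including rice and barnyardgrass.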

barnyardgrass [3] = experiment: Test B pre-/postemergence herbicide test; format: in vivo, Echinochloa crus-galli; details: for Barnyardgrass plant response rating: postemergence
Method in brief: as §3

ducksalad = experiment: Test B flooded paddy test; format: in vivo, Heteranthera limosa; details: 1000 g ai/ha, scale 0 to 100 (0 no effect, 100 complete control)
Method in brief: (§4)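 Visual control ratings, 0–100 versus untreated controls, taken after 13 to 15 days in the greenhouse. Blackgrass received a postemergence spray at the 1- to 4-leaf stage (2–18 cm); ducksalad, umbrella sedge and barnyardgrass were flooded-paddy treated at 2 leaves.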

pigweed = experiment: Test B pre-/postemergence herbicide test; format: in vivo, Amaranthus retroflexus; details: for Pigweed plant response rating: postemergence
Method in brief: as §3

blackgrass = experiment: Test B postemergence herbicide test; format: in vivo, Alopecurus myosuroides; details: postemergence
Method in brief: as §4

cocklebur = experiment: Test B pre-/postemergence herbicide test; format: in vivo, Xanthium strumarium; details: for Cocklebur plant response rating: postemergence
Method in brief: as §3

barnyardgrass [4] = experiment: Test B flooded paddy test; format: in vivo, Echinochloa crus-galli; details: 1000 g ai/ha, scale 0 to 100 (0 no effect, 100 complete control)
Method in brief: as §4

rice [5] = experiment: Test B pre-/postemergence herbicide test; format: in vivo, Oryza sativa; details: 0 = no effect, 100 = complete control, preemergence
Method in brief: as §3

giant foxtail [6] = experiment: Test A pre-/postemergence herbicide test; format: in vivo, Setaria faberi
Method in brief: as §2

morningglory [7] = experiment: Test A pre-/postemergence herbicide test; format: in vivo, Ipomoea spp.
Method in brief: as §2

barnyardgrass [8] = experiment: Test A pre-/postemergence herbicide test; format: in vivo, Echinochloa crus-galli
Method in brief: as §2

lambsquarters = experiment: Test B pre-/postemergence herbicide test; format: in vivo, Chenopodium album; details: for Lambsquarters plant response rating: postemergence
Method in brief: as §3

wild oat = experiment: Test B postemergence herbicide test; format: in vivo, Avena fatua; details: postemergence
Method in brief: as §1

large crabgrass [9] = experiment: Test B pre-/postemergence herbicide test; format: in vivo, Digitaria sanguinalis; details: for Crabgrass, Large plant response rating: postemergence
Method in brief: as §3

morningglory [10] = experiment: Test B pre-/postemergence herbicide test; format: in vivo, Ipomoea coccinea; details: for Morningglory plant response rating: postemergence
Method in brief: as §3

[11] = system: small flower umbrella sedge; experiment: Test B flooded paddy test; format: in vivo, Cyperus difformis; details: 1000 g ai/ha, scale 0 to 100 (0 no effect, 100 complete control)
Method in brief: as §4

giant foxtail [12] = experiment: Test B pre-/postemergence herbicide test; format: in vivo, Setaria faberi; details: for Foxtail, Giant plant response rating: postemergence
Method in brief: as §3

Surinam grass = experiment: Test B pre-/postemergence herbicide test; format: in vivo, Urochloa decumbens; details: for Surinam Grass plant response rating: postemergence
Method in brief: as §3

velvetleaf [13] = experiment: Test A pre-/postemergence herbicide test; format: in vivo, Abutilon theophrasti
Method in brief: as §2

rice [14] = experiment: Test B flooded paddy test; format: in vivo, Oryza sativa; details: 1000 g ai/ha, scale 0 to 100 (0 no effect, 100 complete control)
Method in brief: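 Postemergence plants were sprayed with formulated test chemicals at 2 to 18 cm height (1- to 4-leaf stage); paddy species were grown to the 2-leaf stage. After 13 to 15 days in a greenhouse, injury was rated visually against untreated controls on a 0–100 scale (0 = no effect, 100 = complete control).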

corn = experiment: Test B pre-/postemergence herbicide test; format: in vivo, Zea mays; details: for Corn plant response rating: postemergence
Method in brief: as §3

[15] = 125 g ai/ha, visual rating, scale 0 (no effect) to 100 (complete control)
[16] = 500 g ai/ha, scale 0 to 100, 0 is no effect, 100 is complete control
[17] = Postemergence, 500 g ai/ha, 0 to 100 scale, 0 no effect, 100 complete control
[18] = Postemergence, 2000 g ai/ha, 0 to 100 scale, 0 no effect, 100 complete control
[19] = Preemergence, 2000 g ai/ha, visual rating, 0 to 100 scale (0 no effect, 100 complete control)
[20] = preemergence, 500 g ai/ha, visual injury, 0 to 100 scale (0 no effect, 100 complete control)
[21] = 500 g ai/ha, visual rating, 0 = no effect, 100 = complete control, preemergence
[22] = 125 g ai/ha, 0 = no effect, 100 = complete control, preemergence

SMILES: CCNC(=O)c1cncc(NC(=O)c2cc(C(C)(C)C)nn2CC)n1 [Compound 288]
- Wheat plant response rating (wheat; [15]): 20
- Wheat plant response rating (wheat; [16]): 30
- Pigweed plant response rating (redroot pigweed; [17]): 20
- Plant response rating, Pigweed (redroot pigweed; [18]): 40
- Pigweed plant response rating (redroot pigweed; [19]): 70
- Pigweed plant response rating (redroot pigweed; [20]): 25
- Crabgrass, Large plant response rating (large crabgrass [1]; [17]): 0
- Plant response rating, Crabgrass, Large (large crabgrass [1]; [18]): 15
- Crabgrass, Large plant response rating (large crabgrass [1]; [19]): 10
- Crabgrass, Large plant response rating (large crabgrass [1]; [20]): 0
- Velvetleaf plant response rating (velvetleaf [2]; [15]): 10
- Plant response rating, Velvetleaf (velvetleaf [2]; [21]): 0
- Velvetleaf plant response rating (velvetleaf [2]; [16]): 20
- Barnyardgrass plant response rating (0 to 100 scale) (barnyardgrass [3]; [22]): 0
- Barnyardgrass plant response rating (barnyardgrass [3]; [15]): 0
- Plant response rating, Barnyardgrass (barnyardgrass [3]; [21]): 70
- Barnyardgrass plant response rating (barnyardgrass [3]; [16]): 0
- Ducksalad plant response rating (ducksalad): 0
- Pigweed plant response rating (0 to 100 scale) (pigweed; [22]): 0
- Pigweed plant response rating (pigweed; [15]): 10
- Plant response rating, Pigweed (pigweed; [21]): 90
- Pigweed plant response rating (pigweed; [16]): 20
- Blackgrass plant response rating (blackgrass; [15]): 20
- Blackgrass plant response rating (blackgrass; [16]): 20
- Cocklebur plant response rating (0 to 100 scale) (cocklebur; [22]): 0
- Cocklebur plant response rating (cocklebur; [15]): 0
- Plant response rating, Cocklebur (cocklebur; [21]): 0
- Cocklebur plant response rating (cocklebur; [16]): 0
- Barnyardgrass plant response rating (barnyardgrass [4]): 0
- Rice plant response rating (0 to 100 scale) (rice [5]; 125 g ai/ha): 0
- Plant response rating, Rice (rice [5]; 500 g ai/ha, visual rating): 70
- Foxtail, Giant plant response rating (giant foxtail [6]; [17]): 0
- Plant response rating, Foxtail, Giant (giant foxtail [6]; [18]): 10
- Foxtail, Giant plant response rating (giant foxtail [6]; [19]): 75
- Foxtail, Giant plant response rating (giant foxtail [6]; [20]): 15
- Morningglory plant response rating (morningglory [7]; [17]): 20
- Plant response rating, Morningglory (morningglory [7]; [18]): 20
- Morningglory plant response rating (morningglory [7]; [19]): 30
- Morningglory plant response rating (morningglory [7]; [20]): 5
- Barnyardgrass plant response rating (barnyardgrass [8]; [17]): 5
- Plant response rating, Barnyardgrass (barnyardgrass [8]; [18]): 65
- Barnyardgrass plant response rating (barnyardgrass [8]; [19]): 75
- Barnyardgrass plant response rating (barnyardgrass [8]; [20]): 20
- Lambsquarters plant response rating (0 to 100 scale) (lambsquarters; [22]): 0
- Lambsquarters plant response rating (lambsquarters; [15]): 0
- Plant response rating, Lambsquarters (lambsquarters; [21]): 90
- Lambsquarters plant response rating (lambsquarters; [16]): 30
- Oat, Wild plant response rating (wild oat; [15]): 20
- Oat, Wild plant response rating (wild oat; [16]): 40
- Crabgrass, Large plant response rating (0 to 100 scale) (large crabgrass [9]; [22]): 0
- Crabgrass, Large plant response rating (large crabgrass [9]; [15]): 0
- Plant response rating, Crabgrass, Large (large crabgrass [9]; [21]): 0
- Crabgrass, Large plant response rating (large crabgrass [9]; [16]): 0
- Morningglory plant response rating (0 to 100 scale) (morningglory [10]; [22]): 0
- Morningglory plant response rating (morningglory [10]; [15]): 0
- Plant response rating, Morningglory (morningglory [10]; [21]): 0
- Morningglory plant response rating (morningglory [10]; [16]): 0
- Sedge, Umbrella plant response rating [11]: 60
- Foxtail, Giant plant response rating (0 to 100 scale) (giant foxtail [12]; [22]): 0
- Foxtail, Giant plant response rating (giant foxtail [12]; [15]): 0
- Plant response rating, Foxtail, Giant (giant foxtail [12]; [21]): 10
- Foxtail, Giant plant response rating (giant foxtail [12]; [16]): 30
- Surinam Grass plant response rating (0 to 100 scale) (Surinam grass; [22]): 0
- Surinam Grass plant response rating (Surinam grass; [15]): 0
- Plant response rating, Surinam Grass (Surinam grass; [21]): 0
- Surinam Grass plant response rating (Surinam grass; [16]): 0
- Velvetleaf plant response rating (velvetleaf [13]; [17]): 20
- Plant response rating, Velvetleaf (velvetleaf [13]; [18]): 20
- Velvetleaf plant response rating (velvetleaf [13]; [19]): 40
- Velvetleaf plant response rating (velvetleaf [13]; [20]): 10
- Rice plant response rating (rice [14]): 0
- Corn plant response rating (0 to 100 scale) (corn; [22]): 0
- Corn plant response rating (corn; [15]): 0
- Plant response rating, Corn (corn; [21]): 0
- Corn plant response rating (corn; [16]): 0
